{"source": "patent US20040138237A1", "about": "“Novel injectable depot formulations” (Pfizer Inc, priority 2002, published 2004)", "experiment": "Solubilization of ziprasidone mesylate in concentrated aqueous SBECD solution (concentration, HPLC potency)", "assay_type": "physicochemical", "procedure": "This particular example employs a high concentration of SBECD to form an aqueous solution of ziprasidone at about 80 mgA/ml with about 56% SBECD. To facilitate drug dissolution, a pre-weighed amount of SBECD (gram weight SBECD equivalent to ml of depot formulation being prepared) was dissolved in water by heating in a water bath at 50° C. Ziprasidone mesylate was added in about 50 mg increments while heat was supplied to maintain the system at 50-60° C. A total of 572.99 mg Ziprasidone mesylate was added to 3 ml of 100% SBECD solution resulting in formation of 140 mgA/ml (191 mg/ml) clear viscous solution. The above solution was cooled to room temperature, and the solution remained clear for 2 weeks. Due to volume expansion, the final concentration of ziprasidone was about 80 mgA/ml with 56% cyclodextrin.\nThe stock solution was prepared using the same method as described above, however due to the higher solution volume (20 ml), the dissolution time was much longer (over 4 hours) even though micronized ziprasidone mesylate was used. During compounding, significant volume expansion was noted. To correct for the volume expansion, the specific gravity of the solution was determined to be 1.188 gm/ml. The volume of water used to prepare this solution was 20 ml, however, the final volume of the solution was 36.6 ml, and the weight of the solution was 43.5 gm. Therefore, taking into consideration 83% volume expansion, the corrected concentrations of drug and SBECD in this solution are 77 mgA/ml and 55% w/v, respectively.\nThe extent of solubilization was further confirmed by preparation of 82 mgA/ml ziprasidone solution with 59% SBECD using the same method. Viscosity was greater than 160 cps."}
{"molecule": "O=C1Cc2cc(CCN3CCN(c4nsc5ccccc45)CC3)c(Cl)cc2N1", "note": "[ziprasidone]", "values": [{"measurement": "corrected concentration of drug in solution", "setting": "55% w/v SBECD, corrected for 83% volume expansion, scaled-up stock solution", "value": 77, "unit": "mgA/ml"}, {"measurement": "potency of solution by HPLC potency method", "setting": "scaled-up stock solution, 55% w/v SBECD", "value": 75, "unit": "mgA/ml"}, {"measurement": "final concentration of ziprasidone in clear aqueous solution", "setting": "with 56% cyclodextrin (SBECD), after volume expansion", "value": "about 80 mgA/ml"}]}
